Where “and” joins values, the source holds several entries; their conditions need not be identical. Equal values may be shown once. Marks after values point to notes of the source that are not given here. Square brackets hold non-standard residues; d marks the D form. Peptide text beside a SMILES is read from it.
Columns and labels:
γ-secretase = conditions: phase III clinical trial, cited from earlier work
[1] = Metabolic stability of peptides in fresh human plasma (LC/MS/MS); assay type: in vitro ADME; conditions: for rate at which metabolized in fresh human plasma (in words): compared among P8, 8M1 and 8M1D; for % Remaining / remaining at 3 h, 1 µM / remaining at 8 h, 1 µM / remaining at 24 h, 1 µM: fresh human plasma; for % Remaining: 0 h incubation; for remaining at 3 h, 1 µM: 3 h incubation; for remaining at 8 h, 1 µM: 8 h incubation; for remaining at 24 h, 1 µM: 24 h incubation
Description: P8, 8M1, and 8M1D were generated according to Example 1 with purities ranging from 98.0% to 99.0%. A primary 1.00 mM stock solution was prepared in either acetonitrile or acetonitrile:water (1:1, v/v) for each peptide. A 0.200 mM working stock was made from the primary stock in acetonitrile:water (1:1, v/v), which was used for the reactions. The primary and working stock solutions were stored at −20° C. when not in use, and they were kept at room temperature for as short a time as possible when in use. Fresh human plasma were maintained by adding sodium heparin as an anticoagulant.
The incubation procedures started when 5.00 μL of 0.2 mM (working stock solutions) of different peptides were added to 0.995 mL of fresh human plasma in a 1.7-mL snap tube. After 3, 8 and 24 hours of incubation, duplicate 50.0 μL aliquots of plasma were removed and placed into extraction tubes containing 150 μL of methanol, which served to quench any reactions, and thus incubations were ended. For each time point, the aliquotes were immediately extracted by vortex mixing and centrifugation. Resulting supernates were stored in High-Performance Liquid Chromatography (HPLC) vials and analyzed by LC/MS/MS after all samples were extracted. Valacyclovir was used as a positive control.
LC/MS/MS analysis of the incubation solutions was conducted by initial separation of the test article peaks using chromatography prior to detection by the mass spectrometer. The LC/MS system was comprised of a HPLC coupled with a TQS-Micro or Quattro Premier (Waters, Milford, Mass.). The mobile phase was nebulized using heated nitrogen in a Z spray source/interface set to electrospray in positive ionization mode for the peptides. The ionized peptides were detected using Tandem Quadropole Mass Spectrometry (MS/MS). The data was acquired using MassLynx (Waters, Milford, Mass.).
HPLC for the peptides and Valacyclovir control were performed with no guard columns, with a flow rate at 0.3 mL/min, with column temperature at 40° C., and autosampler temperature at 10° C. The column for peptides was MacMod ACE 2 Excel C18PFP, 100×2.1-mm, 2.0 μm, and the column for the control was Waters Atlantis T3, 150×2.1-mm, 5.0 μm. The injection loop and volumn for peptides were 50.0 μL and 20.0 μL respectively, and the ones for controls were 20.0 μL and 2.00 μL. For the Mass Spectrometer for the peptides and the Valacyclovir control, the source temperature was set to be 150° C., desolvation temperature was set to be 350° C., and polarity was set to be positive mode of electrospray ionization. Other parameters in HPLC and Mass Spectrometer are shown in Table 2.1, Table 2.2 and Table 3 below.

[2] = Pharmacokinetics study in rats, CSF; assay type: in vivo; design: CSF concentration, Mean IV / CSF concentration, Mean SC: unit not given here; conditions: rat; for CSF concentration, Mean IV: 10 mg/kg IV; for CSF concentration, Mean SC: 10 mg/kg SC
Description: (§1) An in-vivo study was carried out in rats to determine the pharmacokinetics (PK) of peptides P8, 8M1D and 8M2D in plasma and CSF. Each peptide was assessed through two dosage routes, intravenous (IV) and subcutaneous (SC). Three rats were assigned to each dose group with each peptide. Total of twelve rats per peptide were used.
CSF collection was performed by first anesthetizing animals at specified time points (see Table 5) with a mixture of 80 mg/kg ketamine and 8 mg/kg xylazine. The depth of anesthesia was monitored by toe pinches. CSF was collected via the cisterna magna (˜0.05 mL), and it was split into equal aliquots, frozen, and stored at −60 to −80° C.

[3] = Pharmacokinetics study in rats, plasma; assay type: in vivo; conditions: rat; for plasma concentration: individual rats
Description: as §1
(§2) Blood was collected through jugular vein cannulas, and the samples were collected into tubes with K2EDTA. After centrifuging at a temperature of 2 to 8° C. at 4,000×g for 5 minutes, the resulting plasma was split into equal aliquots, frozen, and stored at −60 to −80° C. One aliquot was for PK analysis and the other was for Aβ analysis (see Example 4).

Aβ40 = test: Efficacy in reducing Aβ40 in rat plasma (ELISA); assay type: in vivo; conditions: 10 mg/kg SC; for reduction in Aβ40: rat plasma; for Percent Decrease in Aβ 40 in Rat Plasma: mean of 3 rats, negative = decrease
Description: as §2
Rats (n=3 per peptide) were administered with P8, 8M1D, or 8M2D (10 mg/kg) subcutaneously, and plasma were collected at 0, 6, 12, and 24 h after dosing and Aβ40 analysis was carried out by ELISA (Invitrogen).

[4] = 10 mg/kg IV and SC, at Cmax and most subsequent time points

CC(C)[C@H](O)C(=O)N[C@@H](C)C(=O)N[C@@H]1C(=O)N(C)CCc2ccccc21 [semagacestat]
functional ability (in words) (γ-secretase; patients receiving the higher dose): significant worsening of functional ability
effect on improving cognitive functions (in words) (γ-secretase; patients): no effects on improving cognitive functions
adverse events (in words) (γ-secretase): more adverse events including skin cancers and infections

H-DEEEDEEL-NH2 [8M1, DEEEDEEL-NH2]
rate at which metabolized in fresh human plasma (in words) [1]: fastest
% Remaining [1]: 100%
remaining at 3 h, 1 µM [1]: 87.1%
remaining at 8 h, 1 µM [1]: 65.1%
remaining at 24 h, 1 µM [1]: 47.1%

CC(C)C[C@H](NC(=O)[C@H](CCC(=O)O)NC(=O)[C@H](CCC(=O)O)NC(=O)[C@H](CC(=O)O)NC(=O)[C@H](CCC(=O)O)NC(=O)[C@H](CCC(=O)O)NC(=O)[C@H](CCC(=O)O)NC(=O)[C@H](N)CC(=O)O)C(N)=O [8M1D, dEEEDEEL-NH2] (H-[dD]EEEDEEL-NH2)
time after dosing at which detectable in CSF ([2]; 10 mg/kg IV and SC): ≥ 8 h
exposure in CSF compared with P8 (in words) [2, 4]: better exposures than P8
CSF concentration, Mean IV ([2]; 0 hr): 0
CSF concentration, Mean IV ([2]; 0.5 hr): 67.8
CSF concentration, Mean IV ([2]; 1 hr): 80.8
CSF concentration, Mean IV ([2]; 2 hr): 65
CSF concentration, Mean IV ([2]; 4 hr): 23.4
CSF concentration, Mean IV ([2]; 8 hr): 0.913
CSF concentration, Mean IV ([2]; 12 hr): 0
CSF concentration, Mean IV ([2]; 24 hr): 0.261
CSF concentration, Mean SC ([2]; 0 hr): 0
CSF concentration, Mean SC ([2]; 0.5 hr): 50.9
CSF concentration, Mean SC ([2]; 1 hr): 66.1
CSF concentration, Mean SC ([2]; 2 hr): 62.9
CSF concentration, Mean SC ([2]; 4 hr): 18.9
CSF concentration, Mean SC ([2]; 8 hr): 3.85
CSF concentration, Mean SC ([2]; 12 hr): 0
CSF concentration, Mean SC ([2]; 24 hr): 0
exposure in plasma compared with P8 (in words) [3, 4]: better exposures than P8
plasma concentration ([3]; 10 mg/kg IV, 0 hr (pre-dose)): BQL
plasma concentration ([3]; 10 mg/kg IV, 0.167 hr, 10 mg/kg, in ng/mL (unit assumed)): 25,600 and 23,000 and 20,200
plasma concentration ([3]; 10 mg/kg IV, 0.5 hr, 10 mg/kg, in ng/mL (unit assumed)): 7,140 and 8,630 and 6,650
plasma concentration ([3]; 10 mg/kg IV, 1 hr, 10 mg/kg, in ng/mL (unit assumed)): 1,680 and 2,160 and 1,580
plasma concentration ([3]; 10 mg/kg IV, 2 hr, 10 mg/kg, in ng/mL (unit assumed)): 215 and 360 and 290
plasma concentration ([3]; 10 mg/kg IV, 4 hr, 10 mg/kg, in ng/mL (unit assumed)): 25.6 and 16.0 and 17.0
plasma concentration ([3]; 10 mg/kg IV, 6 hr, 10 mg/kg): 2.93 ^b and 0.805 ^b and 1.48 ^b
plasma concentration ([3]; 10 mg/kg IV, 8 hr): BQL
plasma concentration ([3]; 10 mg/kg IV, 12 hr): BQL
plasma concentration ([3]; 10 mg/kg IV, 24 hr): BQL
plasma concentration ([3]; 10 mg/kg SC, 0 hr (pre-dose)): BQL
plasma concentration ([3]; 10 mg/kg SC, 0.167 hr, 10 mg/kg): 20,500 ^a and 19,100 and 25,900
plasma concentration ([3]; 10 mg/kg SC, 0.5 hr, 10 mg/kg): 12,300 ^a and 10,900 and 11,800
plasma concentration ([3]; 10 mg/kg SC, 1 hr, 10 mg/kg, in ng/mL (unit assumed)): 5,440 and 4,310 and 3,410
plasma concentration ([3]; 10 mg/kg SC, 2 hr, 10 mg/kg, in ng/mL (unit assumed)): 1,330 and 1,570 and 642
plasma concentration ([3]; 10 mg/kg SC, 4 hr, 10 mg/kg, in ng/mL (unit assumed)): 49.8 and 75.3 and 43.9
plasma concentration ([3]; 10 mg/kg SC, 6 hr, 10 mg/kg): 11.4 and 8.83 ^b and 4.66 ^b
plasma concentration ([3]; 10 mg/kg SC, 8 hr, 10 mg/kg): 1.29 ^b and BQL (2×)
plasma concentration ([3]; 10 mg/kg SC, 12 hr): BQL
plasma concentration ([3]; 10 mg/kg SC, 24 hr): BQL
stability in fresh human plasma (in words) [1]: relatively stable
rate at which metabolized in fresh human plasma (in words) [1]: slowest
% Remaining [1]: 100%
remaining at 3 h, 1 µM [1]: 115%
remaining at 8 h, 1 µM [1]: 100%
remaining at 24 h, 1 µM [1]: 89.6%
reduction in Aβ40 (Aβ40; 12 hr post dosing): about 27%
reduction in Aβ40 (Aβ40; 24 h post dosing): about 19%
Percent Decrease in Aβ 40 in Rat Plasma (Aβ40; 0 h): 0.00%
Percent Decrease in Aβ 40 in Rat Plasma (Aβ40; 6 h): −23.61%
Percent Decrease in Aβ 40 in Rat Plasma (Aβ40; 12 h): −27.34%
Percent Decrease in Aβ 40 in Rat Plasma (Aβ40; 24 h): −19.13%

From patent publication US20220064214A1, “NOVEL PEPTIDES AND USES THEREOF” (CENNA BIOSCIENCES INC., priority 2019, published 2022)
